Measured values published in patent publication US12291654B2, “Fluorescent polymeric coating film for medical devices” (UNIVERSITE DE STRASBOURG, priority 2018, dated 2025).

Columns and labels:
[1] = NIR fluorescence of coated stainless steel wires (fluorescent image system); format: physicochemical; details: PMMA film, dye 1 wt %; coated 1, 2, 3 or 5 times; FIG. 1
Description: Polymethylmethacrylate is dissolved at 30 mg/ml in acetonitrile.
At this step the fiducial is ready to use.

[2] = Fluorescence of coating films made from different hydrophobic polymers (PMMA, PLGA, PLC); format: physicochemical; details: PLGA or PLC, FIG. 10A, 10B
Description: The coating films based on ICG are prepared as control.
Coating films made from different polymers were also tested.

Row | Structure (SMILES) | NIR fluorescence of coating film on stainless steel wire [1] | brightness of coating films, different polymers [2]
1 | CCCCCCCCCCCCCCCCCCN1/C(=C/C=C/C=C/C=C/C2=[N+](CCCCCCCCCCCCCCCCCC)c3ccc4ccccc4c3C2(C)C)C(C)(C)c2c1ccc1ccccc21 [Cy7.5-C18-TPB, Dioctadecylcyanine 7.5 tetraphenylborate] | visible after the first coating and increases by multiple coating | better brightness than a coating film based on ICG
2 | CCCCCCCCCCCCCCCCCCN1/C(=C/C=C2\CCCC(/C=C/C3=[N+](CCCCCCCCCCCCCCCCCC)c4ccc5ccccc5c4C3(C)C)=C2Oc2c(-c3ccccc3)cccc2-c2ccccc2)C(C)(C)c2c1ccc1ccccc21.[I-] [HA-06-I] | – | better brightness than a coating film based on ICG
